Consider 16 compounds from patent US20150376196A1, “4-SUBSTITUTED PYRROLO- AND PYRAZOLO-DIAZEPINES” (BAYER PHARMA AKTIENGESELLSCHAFT, priority 2013, published 2015).

One test addresses T1, BRD4 (BD1) (Homo sapiens, UniProt O60885).
T1 construct: amino acids 67-152, longer constructs also being possible, preferably amino acids 44-168; made in house; host or cells: E. coli
Kind of test: Binding assay BRD4/acetylated peptide H4 (TR-FRET protein-protein interaction assay). An excerpt:
To assess the BRD4 binding strength of the substances described in this application, the ability thereof to inhibit the interaction between BRD4 (BD1) and acetylated histone H4 in a dose-dependent manner was quantified.
For this purpose, a time-resolved fluorescence resonance energy transfer (TR-FRET) assay was used, which measures the binding between N-terminally His6-tagged BRD4 (BD1) (amino acids 67-152, longer constructs also being possible, preferably amino acids 44-168) and a synthetic acetylated histone H4 (Ac-H4) peptide with sequence GRGK(Ac)GGK(Ac)GLGK(Ac)GGAK(Ac)RHGSGSK-biotin. The recombinant BRD4 protein produced in-house according to Filippakopoulos et al., Nature, 2010, 468:1119-1123 was expressed in E. coli and purified by means of (Ni-NTA) affinity and (Sephadex G-75) size exclusion chromatography. The Ac-H4 peptide can be purchased, for example, from Biosyntan (Berlin, Germany).
In the assay, typically 11 different concentrations of each substance (0.1 nM, 0.33 nM, 1.1 nM, 3.8 nM, 13 nM, 44 nM, 0.15 μM, 0.51 μM, 1.7 μM, 5.9 μM and 20 μM) were analysed as duplicates on the same microtitre plate. For this purpose, 100-fold concentrated solutions in DMSO were prepared by serial dilutions (1:3.4) of a 2 mM stock solution into a clear, 384-well microtitre plate (Greiner Bio-One, Frickenhausen, Germany). From this, 50 nl were transferred into a black test plate (Greiner Bio-One, Frickenhausen, Germany). The test was started by the addition of 2 μl of a 2.5-fold concentrated BRD4 solution (final concentration typically 10 nM in the 5 μl of reaction volume) in aqueous assay buffer [50 mM HEPES pH 7.5, 50 mM sodium chloride (NaCl), 0.25 mM CHAPS and 0.05% serum albumin (BSA)] to the substances in the test plate. This was followed by a 10-minute incubation step at 22° C. for the pre-equilibration of putative complexes between BRD4 and the substances.
The mixture was then incubated in the dark at 22° C. for one hour and then at 4° C. for at least 3 hours and for no longer than overnight. The formation of BRD4/Ac-H4 complexes was determined by the measurement of the resonance energy transfer from the streptavidin-Eu cryptate to the anti-6His-XL665 antibody present in the reaction. For this purpose, the fluorescence emission was measured at 620 nm and 665 nm after excitation at 330-350 nm in a TR-FRET measuring instrument, for example a Rubystar or Pherastar (both from BMG Lab Technologies, Offenburg, Germany) or a Viewlux (Perkin-Elmer). The ratio of the emissions at 665 nm and at 622 nm was taken as an indicator of the amount of BRD4/Ac-H4 complexes formed.
The data (ratios) obtained were normalized, with 0% inhibition corresponding to the mean from the measurements for a set of controls (typically 32 data points) in which all the reagents were present. In these, in place of test substances, 50 nl of DMSO (100%) were used Inhibition of 100% corresponded to the mean from the measurements for a set of controls (typically 32 data points) in which all the reagents except BRD4 were present. The IC50 was determined by regression analysis based on a 4-parameter equation (minimum, maximum, IC50, Hill; Y=max+(min−max)/(1+(X/IC50)^Hill)).
In general terms: Time-resolved FRET reads energy transfer from a long-lived donor to a nearby acceptor.

For another test, the system named is MOLM-13 cells. Kind of test: Cell proliferation assay (alamarBlue), MOLM-13. To be noted: Homo sapiens, Leukaemia, 96 hours, inhibition of cell proliferation. It is filed as cell-based. How it is done: (§1) In accordance with the invention, the ability of the substances to inhibit cell proliferation was determined Cell viability was determined by means of the alamarBlue® reagent (Invitrogen) in a Victor X3 Multilabel Reader (Perkin Elmer). The excitation wavelength was 530 nm and the emission wavelength […].
The MOLM-13 cells (DSMZ, ACC 554) were sown at a concentration of 4000 cells/well in 100 μl of growth medium (RPMI1640, 10% FCS) on 96-well microtitre plates.
(§2) The MDA-MB-231 cells (DSMZ, ACC 732) were sown at a concentration of 4000 cells/well in 100 μl of growth medium (DMEM/Ham's F12 medium, 10% FCS) on 96-well microtitre plates. After overnight incubation at 37° C., the fluorescence values (CI values) were determined. Then the plates were treated with various substance dilutions (1E-5 M, 3E-6 M, 1E-6 M, 3E-7 M, 1E-7 M, 3E-8 M, 1E-8 M) and incubated at 37° C. for 72 (MV-4-11, LOX-IMVI cells), 96 (MOLM-13, B16F10, […] cells), 120 (MOLP-8, KMS-12-PE cells) or 168 (LAPC-4 cells) hours. Subsequently, the fluorescence values were determined (CO values). For the data analysis, the CI values were subtracted from the CO values and the results were compared between cells which had been treated with various dilutions of the substance or only with buffer solution. The ICso values (substance concentration needed for 50% inhibition of cell proliferation) were calculated therefrom.
(§3) The substances were tested in the cell lines in Table 1, which represent the indications specified by way of example: […]
Background: The colour change of resazurin is a common sign of viable cells or microbes.

Another test concerns LAPC-4 cells. Kind of test: Cell proliferation assay (alamarBlue), LAPC-4. It is filed as cell-based. Conditions: Homo sapiens, LAPC4, Prostate, 1 nM methyltrienolone, 168 hours, inhibition of cell proliferation. The procedure:
as §1
The LAPC-4 cells (ATCC, PTA-1441TM) were sown at a concentration of 4000 cells/well in 100 μl of growth medium (RPMI1640, 2 mM L-glutamine, 10% cFCS) on 96-well microtitre plates. One day later, the LAPC-4 cells were treated with 1 nM methyltrienolone and various substance dilutions.
as §2, §3

The mark [1] stands for this setting: BRD4 (BD1) / acetylated histone H4 peptide, TR-FRET, read-out: IC50 (BRD4).

The structures appear in SMILES notation. Like-named read-outs stand apart in the source and are kept apart here.

Regarding `Cc1c2c(cn1C)-n1c(C)nnc1[C@H](CC(=O)N1CCN(C(=O)OC(C)(C)C)CC1)N=C2c1ccc(Cl)cc1` [Example 22, (−)-4-{[(4S)-6-(4-Chlorophenyl)-1,7,8-trimethyl-4,8-dihydropyrrolo[3,4-f][1,2,4]triazolo[4,3-a][1,4]diazepin-4-yl]acetyl}piperazine-1-carboxylic acid tert-butyl ester], the 50% inhibitory concentration (IC50) (usually the concentration that inhibits the measured activity by half) on BRD4 (BD1) (setting [1]) worked out at 20 nM; in the test on MOLM-13 cells, 720 nM; with LAPC-4 cells it was 340 nM.

As for `Cc1c2c(cn1C)-n1c(C)nnc1[C@H](CC(=O)OC(C)(C)C)N=C2c1ccccc1` [Example 4, (−)-2-(4S)-(1,7,8-Trimethyl-6-phenyl-4,8-dihydropyrrolo[3,4f][1,2,4]triazolo[4,3-a][1,4]diazepin-4-yl)acetic acid tert-butyl ester], on BRD4 (BD1), the IC50 amounted to 310 nM.

In the case of `Cc1c2c(cn1C)-n1c(C)nnc1[C@H](CC(=O)N1CCOCC1)N=C2c1ccc(Cl)cc1` [Example 21], the IC50 on BRD4 (BD1) (setting [1]) came to 40 nM; in the test on MOLM-13 cells it was 520 nM; in the test on LAPC-4 cells it was 240 nM.

Take `Cc1c2c(cn1C)-n1c(C)nnc1[C@H](CC(=O)N1CCOCC1)N=C2c1ccccc1` [Example 19, 1-(Morpholin-4-yl)-2-[(4S)-1,7,8-trimethyl-6-phenyl-4,8-dihydropyrrolo[3,4f][1,2,4]triazolo[4,3-a][1,4]diazepin-4-yl]ethanone]: the figures for the IC50 on BRD4 (BD1) (setting [1]), with MOLM-13 cells and in the test with LAPC-4 cells were 240 nM, 1240 nM and 700 nM, respectively.

`Cc1nnc2n1-c1cn(C)nc1C(c1ccc(Cl)cc1)=NC2CC(=O)N1CCOCC1` (stereo not drawn) [Example 16, 2-[6-(4-Chlorophenyl)-1,8-dimethyl-4,8-dihydropyrazolo[3,4-f][1,2,4]triazolo[4,3-a][1,4]diazepin-4-yl]-1-(morpholin-4-yl)ethanone]: the IC50 at BRD4 (BD1) (setting [1]) came to 700 nM; in the test on MOLM-13 cells it was 4550 nM.

`CCNC(=O)C[C@@H]1N=C(c2ccc(Cl)cc2)c2c(cn(C)c2C)-n2c(C)nnc21` [Example 10, (−)-2-[(4S)-6-(4-Chlorophenyl)-1,7,8-trimethyl-4,8-dihydropyrrolo[3,4f][1,2,4]triazolo[4,3-a][1,4]diazepin-4-yl]-N-ethylacetamide]: the 50% inhibitory concentration (IC50) at BRD4 (BD1) (setting [1]) amounted to 170 nM; in the test with MOLM-13 cells, 450 nM.

Consider `Cc1c2c(cn1C)-n1c(C)nnc1C(Cc1nc(C3CC3)no1)N=C2c1ccc(Cl)cc1` (stereo not drawn) [Example 24, 6-(4-Chlorophenyl)-4-[(3-cyclopropyl-1,2,4-oxadiazol-5-yl)methyl]-1,7,8-trimethyl-4,8-dihydropyrrolo[3,4-f][1,2,4]triazolo[4,3-a][1,4]diazepine], for which the IC50 was determined as 50 nM on BRD4 (BD1) (setting [1]) and 80 nM in the test with MOLM-13 cells.

For the compound `Cc1noc(CC2N=C(c3ccc(Cl)cc3)c3c(cn(C)c3C)-n3c(C)nnc32)n1` (stereo not drawn) [Example 25, 6-(4-Chlorophenyl)-1,7,8-trimethyl-4-[(3-methyl-1,2,4-oxadiazol-5-yl)methyl]-4,8-dihydropyrrolo[3,4-f][1,2,4]triazolo[4,3-a][1,4]diazepine], the half-inhibitory concentration (IC50) on BRD4 (BD1) (setting [1]) is 90 nM; in the test on MOLM-13 cells, 130 nM; in the test with LAPC-4 cells, 80 nM.

Consider `CCNC(=O)CC1N=C(c2ccc(Cl)cc2)c2nn(C)cc2-n2c(C)nnc21` (stereo not drawn) [Example 18, 2-[6-(4-Chlorophenol)-1,8-dimethyl-4,8-dihydropyrazolo[3,4-f][1,2,4]triazolo[4,3-a][1,4]diazepin-4-yl]-N-ethylacetamide], for which the half-inhibitory concentration (IC50) on BRD4 (BD1) (setting [1]) worked out at 780 nM.

Turning to `CC(=O)N1CC(NC(=O)C[C@@H]2N=C(c3ccc(Cl)cc3)c3c(cn(C)c3C)-n3c(C)nnc32)C1` [Example 9, N-(1-Acetylazetidin-3-yl)-2-(4S)-[6-(4-chlorophenyl)-1,7,8-trimethyl-4,8-dihydropyrrolo[3,4-f][1,2,4]triazolo[4,3-a][1,4]diazepin-4-yl]acetamide], the 50% inhibitory concentration (IC50) at BRD4 (BD1) (setting [1]) was 110 nM; in the test with MOLM-13 cells it was 610 nM; in the test on LAPC-4 cells it was 550 nM.

With `Cc1nnc2n1-c1cn(C)nc1C(c1ccc(Cl)cc1)=NC2CC(=O)N1CC(F)C1` (stereo not drawn) [Example 17, 2-[6-(4-Chlorophenyl)-1,8-dimethyl-4,8-dihydropyrazolo[3,4-f][1,2,4]triazolo[4,3-a][1,4]diazepin-4-yl]-1-(3-fluoroazetidin-1-yl)ethanone], the IC50 on BRD4 (BD1) (setting [1]) was determined as 1140 nM.

`Cc1c2c(cn1C)-n1c(C)nnc1C(Cc1nc(C(C)C)no1)N=C2c1ccc(Cl)cc1` (stereo not drawn) [Example 29, 6-(4-Chlorophenyl)-1,7,8-trimethyl-4-{[3-(propan-2-yl)-1,2,4-oxadiazol-5-yl]methyl}-4,8-dihydropyrrolo[3,4-f][1,2,4]triazolo[4,3-a][1,4]diazepine]: the IC50 at BRD4 (BD1) (setting [1]) was 30 nM; with MOLM-13 cells, 80 nM.

`Cc1c2c(cn1C)-n1c(C)nnc1C(Cc1nc(C(C)(C)C)no1)N=C2c1ccc(Cl)cc1` (stereo not drawn) [Example 31, 4-[(3-tert-Butyl-1,2,4-oxadiazol-5-yl)methyl]-6-(4-chlorophenyl)-1,7,8-trimethyl-4,8-dihydropyrrolo[3,4-f][1,2,4]triazolo[4,3-a][1,4]diazepine]: the IC50 was 490 nM on BRD4 (BD1) (setting [1]), 490 nM in the test with MOLM-13 cells and 350 nM in the test on LAPC-4 cells.

Regarding `CCc1noc(CC2N=C(c3ccc(Cl)cc3)c3c(cn(C)c3C)-n3c(C)nnc32)n1` (stereo not drawn) [Example 27, 6-(4-Chlorophenyl)-1,7,8-trimethyl-4-[(3-ethyl-1,2,4-oxadiazol-5-yl)methyl]-4,8-dihydropyrrolo[3,4-f][1,2,4]triazolo[4,3-a][1,4]diazepine], the values for the half-inhibitory concentration (IC50) at BRD4 (BD1) (setting [1]) and in the test on MOLM-13 cells were 30 nM and 100 nM, respectively.

For `Cc1c2c(cn1C)-n1c(C)nnc1[C@H](CC(=O)N1CCN3C(=O)CCC3C1)N=C2c1ccc(Cl)cc1` (single isomer, unassigned; (-)) [Example 23], the IC50 on BRD4 (BD1) (setting [1]) turned out to be 50 nM; in the test on MOLM-13 cells, 880 nM; with LAPC-4 cells, 470 nM.

`Cc1nnc2n1-c1cn(C)nc1C(c1ccc(Cl)cc1)=N[C@H]2CC(=O)N1CCS(=O)(=O)CC1` [Example 15, 2-[(4S)-6-(4-Chlorophenyl)-1,8-dimethyl-4,8-dihydropyrazolo[3,4f][1,2,4]triazolo[4,3-a][1,4]diazepin-4-yl]-1-(1,1-dioxidothiomorpholin-4-yl)ethanone]: the half-maximal inhibitory concentration (IC50) turned out to be 450 nM on BRD4 (BD1) (setting [1]) and 2980 nM in the test with MOLM-13 cells.
